Measured values as given in paper PMC10269664, “Cinnamaldehyde Targets the LytTR DNA-Binding Domain of the Response Regulator AgrA to Attenuate Biofilm Formation of Listeria monocytogenes” (Microbiology Spectrum, 2023).
Numbering of substitutions follows the chain as printed.

How the values were obtained:
AgrCFL = molecular target: T1, AgrCFL (Listeria monocytogenes, UniProt Q8YAR5); conditions: 10 μM ATP; 37 °C
T1 construct: gene lmo0050

AgrCCyto = molecular target: T2, AgrCCyto (Listeria monocytogenes, UniProt Q8YAR5); conditions: 10 μM ATP; 37 °C
T2 construct: gene lmo0050

AgrA [1] = molecular target: T3, AgrA (Listeria monocytogenes, UniProt Q8YAR4); experiment: microscale thermophoresis; format: binding; conditions: read-out: Mean Kd ± SD
T3 construct: gene lmo0051; entire protein, 242 residues, pET-28a His-tag, E. coli BL21(DE3), fluorescently labelled for MST
Text: microscale thermophoresis on AgrA

AgrA [2] = molecular target: T4, AgrA (Listeria monocytogenes, UniProt Q8YAR4, K177A); experiment: biochemical
T4 construct: gene lmo0051

AgrA [3] = molecular target: T5, AgrA (Listeria monocytogenes, UniProt Q8YAR4, D159A); experiment: biochemical
T5 construct: gene lmo0051

AgrA [4] = molecular target: T6, AgrA (Listeria monocytogenes, UniProt Q8YAR4, G176A); experiment: biochemical
T6 construct: gene lmo0051

AgrA [5] = molecular target: T7, AgrA (Listeria monocytogenes, UniProt Q8YAR4, N178A); experiment: biochemical
T7 construct: gene lmo0051

AgrA [6] = molecular target: T8, AgrA (Listeria monocytogenes, UniProt Q8YAR4, D158A); experiment: biochemical
T8 construct: gene lmo0051

AgrA [7] = molecular target: T9, AgrA (Listeria monocytogenes, UniProt Q8YAR4, R179A); experiment: biochemical
T9 construct: gene lmo0051

AgrA [8] = molecular target: T10, AgrA (Listeria monocytogenes, UniProt Q8YAR4, H29A); experiment: biochemical
T10 construct: gene lmo0051

[9] = molecular target: T11, AgrA (Listeria monocytogenes EGD-e) (UniProt Q8YAR4); experiment: EMSA
T11 sequence: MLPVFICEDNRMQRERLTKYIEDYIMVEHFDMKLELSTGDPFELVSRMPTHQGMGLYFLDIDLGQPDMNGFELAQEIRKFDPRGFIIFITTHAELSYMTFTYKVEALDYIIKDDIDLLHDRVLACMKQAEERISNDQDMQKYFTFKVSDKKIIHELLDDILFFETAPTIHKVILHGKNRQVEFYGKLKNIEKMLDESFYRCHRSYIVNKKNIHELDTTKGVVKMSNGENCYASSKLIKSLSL

[10] = molecular target: T12, AgrA N178A N178A (Listeria monocytogenes EGD-e) (UniProt Q8YAR4); experiment: EMSA
T12 sequence: T11 sequence with N178A

T1 sequence (Q8YAR5 entry or part of it): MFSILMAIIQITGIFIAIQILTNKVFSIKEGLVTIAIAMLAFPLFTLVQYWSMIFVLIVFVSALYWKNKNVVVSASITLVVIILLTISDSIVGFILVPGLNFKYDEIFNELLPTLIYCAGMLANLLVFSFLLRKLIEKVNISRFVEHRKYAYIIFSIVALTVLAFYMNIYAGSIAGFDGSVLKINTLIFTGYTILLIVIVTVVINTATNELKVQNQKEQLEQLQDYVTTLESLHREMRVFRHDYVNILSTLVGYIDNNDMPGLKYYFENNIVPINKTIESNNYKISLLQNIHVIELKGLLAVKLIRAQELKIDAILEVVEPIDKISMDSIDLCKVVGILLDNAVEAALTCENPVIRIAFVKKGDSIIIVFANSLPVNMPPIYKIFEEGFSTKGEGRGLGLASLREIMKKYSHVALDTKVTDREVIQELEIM
T2 sequence (Q8YAR5 entry or part of it): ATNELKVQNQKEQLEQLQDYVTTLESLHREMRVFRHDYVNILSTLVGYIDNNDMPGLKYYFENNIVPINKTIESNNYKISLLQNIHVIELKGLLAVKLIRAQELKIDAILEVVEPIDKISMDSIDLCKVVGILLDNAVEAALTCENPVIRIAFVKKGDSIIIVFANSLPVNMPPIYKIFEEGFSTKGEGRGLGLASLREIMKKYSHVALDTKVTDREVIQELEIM

## Nc1ncnc2c1ncn2[C@@H]1O[C@H](COP(=O)(O)OP(=O)(O)OP(=O)(O)O)[C@@H](O)[C@H]1O [ATP]
AgrCFL
  Kinase-Lumi chemiluminescence, residual ATP: AgrCFL was also subjected to the kinase assay, and similar results were observed
AgrCCyto
  Kinase-Lumi chemiluminescence, residual ATP: After incubation, the remaining ATP was reduced with increasing concentrations of AgrCCyto

## O=CC=Cc1ccccc1 [cinnamaldehyde]
AgrA [1]
  Kd: 55.9 ± 2.38 µM
AgrA [2]
  Kd: 58.3 ± 4.42 µM
AgrA [3]
  Kd: 59 ± 3.44 µM
AgrA [4]
  Kd: 53.2 ± 1.52 µM
AgrA [5]
  Kd: 138 ± 11.4 µM
AgrA [6]
  Kd: 62 ± 4.8 µM
AgrA [7]
  Kd: 175 ± 17.8 µM
AgrA [8]
  Kd: 57.7 ± 6.47 µM

## CTAATTCACCTCCACTAATATTTTACAACGAATTTACCCATAATAACCAAAAATGTAATGAAATGTCCGATTCTTGTCATGAACGACCAAAAAAGAGCAGAATTGCCGATTTTTTGGATACATTTCAGAATATTCGAACGTGTAAAAAGGACTGTATAATAGGCTTAAAAACCCATATTAATATTTTATTTAAGTGAGTTTATTCATAAAAAAAACCAACTGCAAAAGAATGTTCACAGTTGGCTTTTCCATTTTA (double strand) [agr promoter P2]
[9]
  binding: binds
[10]
  binding: binds more weakly
